Where two headings read alike, the source gives them in different places.

The test system of the assay is CSM14.1 cells. Nature of the assay: Primary HTS assay: ATP content (ATPlite) of undifferentiated CSM14.1 cells challenged with thapsigargin. The assay is classed as cell-based, rat. The settings on record: for IC50: thapsigargin-induced death of undifferentiated CSM14.1, ATP content. The method, boiled down:
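Undifferentiated CSM14.1 cells, 3,000/well, cultured overnight at 32 °C, then test compounds at ~15 μg/mL final (1% DMSO) added. Thapsigargin ~15 μM final given after 2 h; ATPlite luminescence read after 24 h as survival surrogate, with 100 μM Salubrinal as maximum and DMSO as minimum.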
Background: Cellular ATP, detected with luciferase, serves as a proxy for viable cell number.

Where [1] appears, read: first assay, read-out: IC50 (μM), first value.
[2] abbreviates: one value given, read-out: IC50.
[3] abbreviates: second assay (value in bold), read-out: IC50 (μM), value from a second assay.

One may read the IC50 as the concentration that gives 50% inhibition. As for `COc1ccc(C2CC(=O)C3=C(C2)Nc2ccccc2NC3c2ccccc2C(F)(F)F)cc1OC` (centres unmarked) [Compound 6237735], the IC50 reads like this: under setting [1], 17.2 ± 0.471 µM; under setting [2], 12.5 ± 0.186 µM; under setting [3], 12.5 ± 0.186 µM.
For `CCN(CC)c1ccc(C2Nc3ccccc3NC3=C2C(=O)CC(c2ccccc2)C3)cc1` (centres unmarked) [Compound 5962123, 6-(4-diethylaminophenyl)-9-phenyl-5,6,8,9,10,11-hexahydrobenzo[c][1,5]benzodiazepin-7-one], the “Cytoprotective activity, stimulus Thapsigargin (Result)” value (readout ATP & Annexin, CSM 14.1, compound ≦25 μM) was “+ (+indicates ≧50% rescue of cell viability relative to untreated cells not exposed to thapsigargin at compound concentration of ≦25 μM)”. The IC50 under setting [2] came to 7.5 ± 0.857 µM.
With `COc1ccc(C2CC(=O)C3=C(C2)Nc2ccccc2NC3c2cccc(Oc3ccccc3)c2)cc1OC` (centres unmarked) [Compound 6239507], the half-inhibitory concentration (IC50) runs as follows: under setting [1], 13.9 ± 0.26 µM; under setting [2], 10.2 ± 1.62 µM; under setting [3], 10.2 ± 1.62 µM.
